Tests used:
MKN-45 cells = assay: Inhibition of MKN-45 proliferation (MTT); type: cell-based, human; settings: for GI50 / inhibition at 0.1 µM / inhibition at 1 µM: Homo sapiens, MKN-45, MKN-45 proliferation
Method in brief: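 High-Met human gastric adenocarcinoma MKN-45 cells plated in complete growth medium, compounds added next day and viability read 3 days later by MTT dye reduction.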

Akt = assay: Inhibition of Akt phosphorylation in NCI-H441 cells (western blot, pAkt S473); type: cell-based; settings: Homo sapiens
Description: Inhibition of Akt Phosphorylation in MKN-45 or NCI-11441 Cells:
Akt is a serine-threonine kinase and a downstream marker regulated by c-Met kinase via the PI3K pathway. Once phosphorylated, Akt regulates several end processes including cell survival and growth. Cells were treated with 0−1000 nM of test compounds, lysed, and the proteins separated on a 10% SDS-PAGE. Following separation, proteins were transferred onto a nitrocellulose membrane and detected by chemiluminescence after incubation with pAkt S473 mAb (primary) and rabbit anti-mouse Ab (secondary). Intensity of the bands was determined using ImageJ 1.42q (NIH, USA) and normalized to Actin (loading control).

c-Met [1] = molecular target: T1, c-Met (Homo sapiens, UniProt P08581); assay: Inhibition of c-Met kinase phosphorylation in MKN-45 cells (cell based ELISA); parameters: endogenous in cells; host or cells: MKN-45; settings: 1 h
Description: Inhibition of c-Met Kinase Phosphorylation in MKN-45 Cells:
MKN45 cells are a prototype of “c-Met addicted” cells having constitutively activated c-Met kinase similar to that observed in sub-sects of gastric or hepatocellular cancer patients with dysregulated c-Met kinase activity. Inhibition of Met phosphorylation was determined using a cell based ELISA assay according to the following schedule:
Day 1: MKN-45 cells were plated in 96-well plates in complete growth medium.
Day 2: Inhibitors at the desired concentration were added to the plates and incubated for 1 h and lysed subsequently.
Lysates were transferred to NUNC Maxisorp plates coated with anti-cMet receptor antibody. Phopho-tyrosine mAb and HRP-lined anti-mouse IgG were used as primary and secondary antibodies respectively. Optical density was measured on a microplate reader (BMG Labtech., Germany) at […]. Inhibition of c-Met phosphorylation in this cell line indicates a therapeutic potential for test compounds in patients diagnosed with cancers caused by aberrant c-Met kinase signalling.

c-Met [2] = molecular target: T1, c-Met; assay: Inhibition of c-Met kinase phosphorylation in NCI-H441 cells (cell based ELISA); parameters: endogenous in cells; host or cells: NCI-H441; settings: 1 h
Description: Inhibition of c-Met Kinase Phosphorylation in NCI—H441 Cells:
Inhibition of Met phosphorylation was determined using a cell based ELISA assay according to the following schedule:
Day 1: NCI—H441 cells were plated in 96-well plates in complete growth medium.
Day 2: Inhibitors at the desired concentration were added to the plates, incubated for 1 h and lysed subsequently. Lysates were transferred to NUNC Maxisorp plates coated with anti-cMet receptor antibody. Phopho-tyrosine mAb and HRP-lined anti-mouse IgG were used as primary and secondary antibodies respectively. Optical density was measured on a microplate reader (BMG Labtech., Germany) at […].

Met kinase = Met kinase (Homo sapiens, UniProt P08581); assay: MET kinase assay (colorimetric determination of c-Met kinase activity, HTScan Met Kinase Assay Kit); type: biochemical; parameters: purchased Cell Signalling Technology, Beverly, Mass; settings: for IC50: c-Met kinase
Text: 1. MET Kinase Assay Protocol:
Colorimetric Determination of c-Met Kinase Activity
The receptor tyrosine kinase c-Met is a heterodimeric transmembrane glycoprotein involved in several cellular processes that aid in tumor progression. Phosphorylation of the tyrosine residues in the c-Met kinase domain is critical for its activity and the resulting down-stream effects. The colorimetric assay allows detection of the phosphorylated form of a biotinylated peptide upon activation of human recombinant Met kinase.
MET Kinase Assay Protocol:
c-Met Kinase activity shall be determined using an HTScan® Met Kinase Assay Kit (Cell Signalling Technology, Beverly, Mass.) with modifications. All incubations are carried out at room temperature. Briefly, 12.5 μl of a 4× reaction cocktail (DTT/Kinase buffer containing appropriate quantity of human Met kinase) is added to each well of a 96-well plate containing 12.5 μl pre-diluted compound of interest and incubated for 5 minutes. After the initial incubation, 25 μl/well of 2×ATP/biotinylated peptide is added and incubated for an additional 30 minutes. The reaction is terminated by the addition of 50 μl/well stop buffer (50 mM EDTA, pH 8.0). The reaction mixture (25 μl/well) is then transferred to a streptavidin coated plate (Perkin Elmer, Cat#4009-0010) containing 75 μl dH2O and incubated for 60 minutes. The plate is washed with 200 μl/well wash buffer (1×PBS, 0.05% Tween-20). After washing, 100 μl/well phospho-tyrosine mAb (1:1000 in wash buffer containing 1% BSA) is added and incubated for 60 minutes. After another round of washes, 100 μl/well europium labelled anti-mouse IgG (1:500 in wash buffer containing 1% BSA) is added and incubated for an additional 30 minutes. Following additional washes, 100 μl/well Delfia® enhancement solution (Perkin Elmer, Cat#1244-105) is added and incubated for 45 minutes. Florescence is measured on a microplate reader (BMG Labtech., Germany) at 340 nm (excitation) and 615 nm (emission) for calculating % inhibition. Data generated can be analyzed further using Graphpad Prism (Graphpad software, San Diego Calif.) for determination of IC50.

T1 sequence (P08581 25-1390): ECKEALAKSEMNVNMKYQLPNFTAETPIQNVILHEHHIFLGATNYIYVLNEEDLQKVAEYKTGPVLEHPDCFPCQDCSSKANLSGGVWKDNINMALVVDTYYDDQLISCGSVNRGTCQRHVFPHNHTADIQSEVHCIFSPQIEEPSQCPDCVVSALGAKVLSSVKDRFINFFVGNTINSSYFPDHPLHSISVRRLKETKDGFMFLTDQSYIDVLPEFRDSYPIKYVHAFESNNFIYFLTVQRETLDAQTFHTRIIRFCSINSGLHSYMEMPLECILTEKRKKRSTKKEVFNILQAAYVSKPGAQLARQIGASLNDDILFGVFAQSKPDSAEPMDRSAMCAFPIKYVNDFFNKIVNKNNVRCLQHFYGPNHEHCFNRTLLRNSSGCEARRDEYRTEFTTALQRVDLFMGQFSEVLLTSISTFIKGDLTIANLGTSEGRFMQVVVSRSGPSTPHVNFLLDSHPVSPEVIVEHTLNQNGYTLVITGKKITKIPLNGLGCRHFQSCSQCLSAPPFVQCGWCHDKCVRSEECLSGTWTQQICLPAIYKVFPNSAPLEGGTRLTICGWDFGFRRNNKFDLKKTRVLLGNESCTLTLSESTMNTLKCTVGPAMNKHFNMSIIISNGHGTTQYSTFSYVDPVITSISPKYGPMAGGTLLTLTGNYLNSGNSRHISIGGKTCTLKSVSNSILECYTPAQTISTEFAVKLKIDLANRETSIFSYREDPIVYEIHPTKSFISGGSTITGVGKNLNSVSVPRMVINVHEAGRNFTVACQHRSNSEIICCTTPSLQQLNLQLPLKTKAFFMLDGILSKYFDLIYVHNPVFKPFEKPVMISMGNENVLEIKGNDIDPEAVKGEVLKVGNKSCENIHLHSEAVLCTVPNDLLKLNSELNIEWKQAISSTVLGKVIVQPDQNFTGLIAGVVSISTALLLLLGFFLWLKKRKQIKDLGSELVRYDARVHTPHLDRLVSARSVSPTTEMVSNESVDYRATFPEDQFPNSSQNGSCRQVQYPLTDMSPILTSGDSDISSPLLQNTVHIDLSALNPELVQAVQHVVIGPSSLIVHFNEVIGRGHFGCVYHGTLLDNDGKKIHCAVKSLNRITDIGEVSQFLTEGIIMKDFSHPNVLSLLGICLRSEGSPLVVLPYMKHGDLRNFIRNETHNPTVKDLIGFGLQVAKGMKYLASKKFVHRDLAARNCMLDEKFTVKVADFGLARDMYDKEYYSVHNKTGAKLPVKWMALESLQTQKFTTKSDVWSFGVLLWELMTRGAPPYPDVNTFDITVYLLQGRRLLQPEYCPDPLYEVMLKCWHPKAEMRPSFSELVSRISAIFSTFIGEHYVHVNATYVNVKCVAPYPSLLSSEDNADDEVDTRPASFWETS
Chain of Met kinase (P08581 25-1390): as above

| GI50 (MKN-45 cells) [nM] | IC50 (c-Met [1]) [nM] | melting point [°C] | inhibition at 1 µM (Met kinase) [%] | IC50 (Met kinase) [nM] | SMILES | also measured |
| --- | --- | --- | --- | --- | --- | --- |
| ≤ 50 | ≤ 50 | 202 to 204 | 75 to 100 | 50 to 100 | OCc1ccc(-c2ccc3nnn(Cc4ccc5ncccc5c4)c3n2)cc1F [Ex 16, (2-Fluoro-4-(3-(quinolin-6-ylmethyl)-3H-[1,2,3]triazolo[4,5-b]pyridin-5-yl)phenyl)methanol] |  |
| 50 to 150 | 50 to 150 | 212 to 214 | 75 to 100 | 100 to 250 | CNC(=O)c1ccc(-c2ccc3nnn(Cc4ccc5ncccc5c4)c3n2)cc1F [Ex 14, 2-Fluoro-N-methyl-4-(3-(quinolin-6-ylmethyl)-3H-[1,2,3]triazolo[4,5-b]pyridin-5-yl)benzamide] | IC50 (c-Met [2]): 10 to 50 nM |
| ≤ 50 | 50 to 150 |  |  |  | O=C(NC1CC1)c1ccc(-c2ccc3nnn(Cc4ccc5ncccc5c4)c3n2)cc1F [Ex 46, N-Cyclopropyl-2-fluoro-4-(3-(quinolin-6-ylmethyl)-3H-[1,2,3]triazolo[4,5-b]pyridin-5-yl)benzamide] |  |
|  |  | 254 to 257 | 75 to 100 | 50 to 100 | O=C(O)c1ccc(-c2ccc3nnn(Cc4ccc5ncccc5c4)c3n2)cc1F [Ex 13, 2-Fluoro-4-(3-(quinolin-6-ylmethyl)-3H-[1,2,3]triazolo[4,5-b]pyridin-5-yl)benzoic acid] |  |
| 150 to 500 |  | 229 to 231 | 50 to 75 | 250 to 1000 | NC(=O)c1ccc(-c2ccc3nnn(Cc4ccc5ncccc5c4)c3n2)cc1 [Ex 21, 4-(3-(quinolin-6-ylmethyl)-3H-[1,2,3]triazolo[4,5-b]pyridin-5-yl)benzamide] |  |
| ≤ 50 | 50 to 150 |  |  |  | CCNC(=O)c1ccc(-c2ccc3nnn(Cc4ccc5ncccc5c4)c3n2)cc1F [Ex43] |  |
|  |  | 128 to 130 |  |  | CCCNC(=O)c1ccc(-c2ccc3nnn(Cc4ccc5ncccc5c4)c3n2)cc1Cl [Ex 102, 2-Chloro-N-propyl-4-(3-(quinolin-6-ylmethyl)-3H-[1,2,3]triazolo[4,5-b]pyridin-5-yl)benzamide] | inhibition at 0.1 µM (MKN-45 cells; 0.1 μM): 50 to 75%; inhibition at 1 µM (MKN-45 cells; 1 μM): 75 to 100% |
|  |  | 100 to 102 |  |  | CCCCNC(=O)c1ccc(-c2ccc3nnn(Cc4ccc5ncccc5c4)c3n2)cc1F [Ex 91, N-Butyl-2-fluoro-4-(3-(quinolin-6-ylmethyl)-3H-[1,2,3]triazolo[4,5-b]pyridin-5-yl)benzamide] | inhibition at 0.1 µM (MKN-45 cells; 0.1 μM): 25 to 50%; inhibition at 1 µM (MKN-45 cells; 1 μM): 50 to 75% |

The next lines start with the molecule.

| SMILES | GI50 (MKN-45 cells) [nM] | IC50 (c-Met [1]) [nM] | melting point [°C] | inhibition at 1 µM (Met kinase) [%] | IC50 (Met kinase) [nM] | also measured |
| --- | --- | --- | --- | --- | --- | --- |
| OCCn1cc(-c2ccc3nnn(Cc4ccc5ncccc5c4)c3n2)cn1 [Ex 146, 2-(4-(3-(Quinolin-6-ylmethyl)-3H-[1,2,3]triazolo[4,5-b]pyridin-5-yl)-1H-pyrazol-1-yl)ethanol] | 50 to 150 | 50 to 150 |  |  |  | IC50 (Akt): 25 to 50 nM; IC50 (c-Met [2]): 50 to 100 nM |
| NC(=O)c1ccc(-c2ccc3nnn(Cc4cc5cccnc5cc4F)c3n2)cc1F [Ex 137, 2-Fluoro-4-(3-((7-fluoroquinolin-6-yl)methyl)-3H-[1,2,3]triazolo[4,5-b]pyridin-5-yl)benzamide] | ≤ 50 | ≤ 50 |  | 75 to 100 | ≤ 50 | inhibition at 0.1 µM (MKN-45 cells; 0.1 μM): 75 to 100%; % inhibition @ 1 uM (MKN-45 cells; MKN-45 proliferation, 1 μM): B (B = ≥50-<75%); IC50 (c-Met [2]): ≤ 10 nM |
| COc1cccc(-c2ccc3nnn(Cc4ccc5ncccc5c4)c3n2)c1 [Ex 2, 6-((5-(3-Methoxyphenyl)-3H-[1,2,3]triazolo[4,5-b]pyridin-3-yl)methyl)quinoline] | > 1000 |  | 133 to 135 | 75 to 100 | 50 to 100 |  |
| OCc1ccc(-c2ccc3nnn(Cc4ccc5ncccc5c4)c3n2)cc1 [Ex 6, (4-(3-(quinolin-6-ylmethyl)-3H-[1,2,3]triazolo[4,5-b]pyridin-5-yl)phenyl)methanol] | 150 to 500 |  | 187 to 189 | 75 to 100 | 50 to 100 |  |
| C[C@H](c1ccc2ncccc2c1)n1nnc2ccc(-c3ccc(C(N)=O)c(Cl)c3)nc21 [Ex 222, (+)-2-chloro-4-(3-(1-(quinolin-6-yl)ethyl)-3H-[1,2,3]triazolo[4,5-b]pyridin-5-yl) benzamide] |  |  |  | 50 to 75 | 250 to 1000 | inhibition at 0.1 µM (MKN-45 cells; 0.1 μM): 25 to 50% |
| O=C(O)c1ccc(-c2ccc3nnn(Cc4ccc5ncccc5c4)c3n2)cc1 [Ex 8, 4-(3-(quinolin-6-ylmethyl)-3H-[1,2,3]triazolo[4,5-b]pyridin-5-yl)benzoic acid] | > 1000 |  | 245 to 247 | 75 to 100 | 50 to 100 |  |
| CC(c1ccc2ncccc2c1)n1nnc2ccc(-c3cnn(CCO)c3)nc21 (stereo not drawn) [Ex 164, 2-(4-(3-(1-(Quinolin-6-yl)ethyl)-3H-[1,2,3]triazolo[4,5-b]pyridin-5-yl)-1H-pyrazol-1-yl)ethanol] | 50 to 150 | 50 to 150 | 188 to 191 |  |  |  |
| C[C@@H](c1ccc2ncccc2c1)n1nnc2ccc(-c3ccc(C(N)=O)c(Cl)c3)nc21 [Ex 221, (−)-2-chloro-4-(3-(1-(quinolin-6-yl)ethyl)-3H-[1,2,3]triazolo[4,5-b]pyridin-5-yl) benzamide] | ≤ 50 |  |  | 75 to 100 | 50 to 100 | inhibition at 0.1 µM (MKN-45 cells; 0.1 μM): 50 to 75% |
| CNC(=O)c1ccc(-c2ccc3nnn(Cc4ccc5ncccc5c4)c3n2)cc1 [Ex 9, N-Methyl-4-(3-(quinolin-6-ylmethyl)-3H-[1,2,3]triazolo[4,5-b]pyridin-5-yl)benzamide] | 50 to 150 | 50 to 150 | 220 to 222 | 75 to 100 | 50 to 100 |  |
| Cl.NC(=O)c1c(F)cc(-c2ccc3nnn(Cc4ccc5ncccc5c4)c3n2)cc1F [Ex 139, 2,6-Difluoro-4-(3-(quinolin-6-ylmethyl)-3H-[1,2,3]triazolo[4,5-b]pyridin-5-yl)benzamide hydrochloride] |  |  |  |  |  | inhibition at 1 µM (MKN-45 cells; 1 μM): < 25%; Inhibition (% Inhibition of MKN-45 proliferation) (MKN-45 cells; MKN-45 proliferation, 0.1 μM): B (B = ≥50-<75%); IC50 (c-Met [2]): ≤ 10 nM |

From US10590129B2 (Incozen Therapeutics Pvt. Ltd., priority 2010, dated 2020)
